Assay results: publication PMC4865535, “Effect of carbamazepine on dolutegravir pharmacokinetics and dosing recommendation” (European Journal of Clinical Pharmacology, 2016)
Values joined by “and” are separate entries in the source; they are usually repeats but may differ in a detail not shown here. Identical values can stand only once. Like-named read-outs stand apart in the source and are kept apart here.

Tests used:
[1] = parameters: method as in ref 11 = [11]; 11. Tegretol ® (carbamazepine) [package insert]. East Hanover: Novartis; 2014; settings: cited from earlier work
[2] = Safety evaluations (adverse events, laboratory tests) in the crossover study; assay type: in vivo, human; settings: for Subjects who experienced at least one AE: by treatment period; for Drug-related adverse events: ALT increased / Drug-related adverse events: Any event / Drug-related adverse events: Asthenia / Drug-related adverse events: Cognitive disorder / Drug-related adverse events: Drug reaction with eosinophilia and systemic symptoms / Drug-related adverse events: Fatigue / Drug-related adverse events: Headache / Drug-related adverse events: Hyponatremia / Drug-related adverse events: Leukopenia / Drug-related adverse events: Lymphopenia / Drug-related adverse events: Nausea / Drug-related adverse events: Pain in extremity / Drug-related adverse events: Photosensitivity reaction / Drug-related adverse events: Pyrexia / Drug-related adverse events: Rash maculopapular / Drug-related adverse events: Thirst / Drug-related adverse events: Thrombocytopenia: DTG alone n = 16, CBZ alone n = 16, DTG + CBZ n = 14
Protocol: Safety evaluations included the monitoring of adverse events (AEs), physical examinations, clinical chemistry laboratory tests, vital signs, and electrocardiograms. Additionally, assessment of Columbia suicide severity rating scale scores was performed throughout the study, because CBZ exposure (along with exposure to several other AEDs) has been associated with increased risk of suicidal ideation and depression.

CYP3A4 [3] = tested on: CYP3A4; parameters: method as in PMID 23132334; settings: in vitro; cited from earlier work
UGT2B7 = tested on: UGT2B7; parameters: method as in PMID 23132334; settings: in vitro; cited from earlier work
[4] = Steady-state plasma DTG pharmacokinetics with and without CBZ (phase I open-label fixed-sequence crossover study); assay type: in vivo, human; settings: for half-life: read-out: t1/2 (terminal elimination half-life) of DTG, geometric mean (CV%) (converted)
Protocol: This was a phase I, single-site, open-label, fixed-sequence, crossover study with three treatment periods to evaluate the effect of an oral extended-release formulation of CBZ on the steady-state PK of orally administered DTG in 16 healthy subjects. The study was conducted in accordance with the principles of the Declaration of Helsinki. A written informed consent was obtained from all subjects, and the protocol was approved by the institutional review board of the study site. The trial was registered at ClinicalTrials.gov (NCT01967771; protocol number: 200901). During period 1, subjects received DTG 50 mg once daily as a single agent for days 1 to 5. During period 2, subjects received CBZ alone and the dose was escalated: 100 mg twice daily for days 1 to 3, 200 mg twice daily for days 4 to 6, and 300 mg twice daily for days 7 to 16. During period 3, DTG 50 mg once daily was co-administered with CBZ 300 mg twice daily for days 1 to 5. There was no washout between treatment periods. As CBZ is recommended to be given with food per product information, all doses in the testing unit, including those on PK collection days, were administered orally in the morning 30 min after the start of the moderate-fat meal, and subjects were asked to do the same when dosing outside the unit. Subjects were housed at the clinical research unit from period 1, day 1, until the morning of period 2, day 8, as well as from period 2, day 16, through period 3, day 6. Phone call reminders and pill counts were employed when subjects self-administered CBZ as outpatients during period 2, days 8 to 16. […] Plasma samples were analyzed for DTG by PPD, Inc. (Middleton, WI) using a validated analytical method based on protein precipitation with acetonitrile containing the stable isotope-labeled internal standard (GSK1349572-d7-^15N), followed by high-performance liquid chromatography/tandem mass spectrometry analysis. The lower limit of quantification for DTG in plasma was 20 ng/mL, and the upper limit of quantification was 20,000 ng/mL. Precision and accuracy were evaluated by replicate analyses of human plasma quality control samples prepared at five concentrations: 60, 160, 640, 2400, and 15,200 ng/mL. Precision, measured as the percent coefficient of variation, ranged from 3.0 to 5.9 % across the quality control range. […] Both were within acceptance standards of 15 %. A non-compartmental PK analysis of the DTG concentration-time data was conducted by Phast Clinical Data, Inc. (Raleigh, NC). Pharmacokinetic analyses of plasma DTG concentration-time data were analyzed using Model 200 (for extravascular administration) of Phoenix WinNonlin version 6.3 (Pharsight Corporation, St. Louis, MO). Plasma PK parameters for DTG were calculated using actual elapsed times from dosing. The individual PK parameters that were determined included area under the curve from time zero to the end of the dosing interval (AUC(0-τ)), maximum observed plasma concentration (Cmax), plasma concentration at the end of the dosing interval (Cτ), oral clearance, and terminal half-life. This study was designed to estimate the magnitude of drug-interaction effect of CBZ on the PK parameters of DTG. No formal hypothesis was tested. Instead, an estimation approach was used to evaluate the effect of CBZ on DTG PK. Pharmacokinetic parameters were log-transformed and analyzed by analysis of variance to determine the point estimate and associated 90 % confidence intervals for the difference between test treatment (DTG + CBZ) and reference treatment (DTG alone). These values were then back-transformed to calculate the point and interval estimates for test-to-reference treatment ratios on the original scale. Geometric least-squares mean ratios and 90 % confidence intervals were generated by the mixed-effect model for within-subject treatment comparisons.

CYP isozymes = tested on: CYP isozymes; parameters: method as in PMID 23132334; settings: in vitro; cited from earlier work
OATP1B1 = tested on: OATP1B1; parameters: method as in PMID 23132334; settings: in vitro; cited from earlier work
[5] = tested on: cytochrome P450 (CYP) 3A4; parameters: method as in PMID 23132334; settings: minor component; primarily metabolized by UGT1A1; cited from earlier work
OATP1B3 = tested on: OATP1B3; parameters: method as in PMID 23132334; settings: in vitro; cited from earlier work
MRP2 = tested on: MRP2; parameters: method as in PMID 23132334; settings: in vitro; cited from earlier work
CYP2B6 = tested on: CYP2B6; parameters: method as in PMID 23132334; settings: in vitro; cited from earlier work
[6] = tested on: breast cancer resistance protein; parameters: method as in PMID 23132334; settings: in vitro; cited from earlier work
CYP1A2 = tested on: CYP1A2; parameters: method as in PMID 23132334; settings: in vitro; cited from earlier work
P-glycoprotein (P-gp) = tested on: P-glycoprotein (P-gp); parameters: method as in PMID 23132334; settings: cited from earlier work
UGT1A1 = tested on: UGT1A1; parameters: method as in PMID 23132334; settings: in vitro; cited from earlier work
P-gp = tested on: P-gp; parameters: method as in PMID 23132334; settings: in vitro; cited from earlier work
CYP3A4 [7] = tested on: CYP3A4; parameters: method as in ref 1 = [1]; 1. Tivicay ® (dolutegravir) [package insert]. Research Triangle Park: ViiV Healthcare; 2014; settings: midazolam as probe substrate for CYP3A4, healthy subjects; cited from earlier work
[8] = parameters: method as in PMID 25146692, PMID 23075918; settings: DTG co-administered with tipranavir/ritonavir, efavirenz, and rifampin; cited from earlier work
[9] = DTG 50 mg once daily alone, day 5 of period 1, n = 16
[10] = DTG co-administered with CBZ vs DTG alone
[11] = DTG co-administered with CBZ, 14 subjects with PK results in both periods

NC(=O)N1c2ccccc2C=Cc2ccccc21 [CBZ, Carbamazepine]
half-life ([1]; following chronic dosing): 12 to 17 h | half-life ([1]; following single dosing): 25 to 65 h | Subjects who experienced at least one AE ([2]; healthy subjects): six | Drug-related adverse events: ALT increased ([2]; healthy subjects): 1 (6) n (%) | Drug-related adverse events: Any event ([2]; healthy subjects): 6 (38) n (%) | Drug-related adverse events: Asthenia ([2]; healthy subjects): 1 (6) n (%) | Drug-related adverse events: Cognitive disorder ([2]; healthy subjects): 1 (6) n (%) | Drug-related adverse events: Drug reaction with eosinophilia and systemic symptoms ([2]; healthy subjects): 1 (6) n (%) | Drug-related adverse events: Fatigue ([2]; healthy subjects): 0 n (%) | Drug-related adverse events: Headache ([2]; healthy subjects): 2 (13) n (%) | Drug-related adverse events: Hyponatremia ([2]; healthy subjects): 1 (6) n (%) | Drug-related adverse events: Leukopenia ([2]; healthy subjects): 1 (6) n (%) | Drug-related adverse events: Lymphopenia ([2]; healthy subjects): 1 (6) n (%) | Drug-related adverse events: Nausea ([2]; healthy subjects): 1 (6) n (%) | Drug-related adverse events: Pain in extremity ([2]; healthy subjects): 1 (6) n (%) | Drug-related adverse events: Photosensitivity reaction ([2]; healthy subjects): 0 n (%) | Drug-related adverse events: Pyrexia ([2]; healthy subjects): 1 (6) n (%) | Drug-related adverse events: Rash maculopapular ([2]; healthy subjects): 1 (6) n (%) | Drug-related adverse events: Thirst ([2]; healthy subjects): 1 (6) n (%) | Drug-related adverse events: Thrombocytopenia ([2]; healthy subjects): 2 (13) n (%) | White blood cell count (decrease) ([2]; one subject with suspected grade 2 hypersensitivity syndrome on 300 mg CBZ twice daily, period 2, baseline 8800 cells/mm^3): 3800 cells/mm^3 | Subjects permanently discontinued because of AEs ([2]; period 2 (CBZ alone)): Two | Platelet count (low) ([2]; same subject on 300 mg CBZ twice daily, 159,000 3 days before): 78,000 cells/mm^3 | ALT level (high) ([2]; same subject on 300 mg CBZ twice daily, grade 2): 151 IU/L

C[C@@H]1CCO[C@H]2Cn3cc(C(=O)NCc4ccc(F)cc4F)c(=O)c(O)c3C(=O)N12 [DTG, Dolutegravir]
Induction of CYP3A4 (CYP3A4 [3]): not an inducer | Direct inhibition of UGT2B7 (UGT2B7): minimal or no direct inhibition | CL/F (oral clearance) of DTG, geometric mean (CV%) [4, 9]: 0.929 (21.4) L/h | Cτ of plasma DTG, geometric mean (CV%) [4, 9]: 1.20 (39.1) μg/mL | Increase of dolutegravir clearance [4, 10]: 95% | Reduction of geometric mean AUC(0-τ) of DTG [4, 10]: 49% | Reduction of geometric mean Cmax of DTG [4, 10]: 33% | Reduction of geometric mean Cτ of DTG [4, 10]: 73% and ~ 73% | Reduction in AUC(0-τ) on an individual subject basis [4, 11]: 27 to 58% | Reduction in Cτ on an individual subject basis [4, 11]: 53 to 82% | half-life ([4]; human, plasma, oral, DTG 50 mg once daily + CBZ 300 mg twice daily, day 5 of period 3, n = 14): 7.31 h | Cmax ([4]; human, plasma, oral, DTG 50 mg once daily alone, day 5 of period 1, n = 16, read-out: Cmax of plasma DTG, geometric mean (CV%)): 4160 ng/mL | half-life ([4]; human, plasma, oral, DTG 50 mg once daily alone, day 5 of period 1, n = 16): 12.9 h | AUC ([4]; human, plasma, DTG 50 mg once daily alone, day 5 of period 1, oral with moderate-fat meal, healthy subjects, n = 16, read-out: AUC(0-τ) of plasma DTG, geometric mean (CV%)): 53800 ng·h/mL | Direct inhibition of CYP isozymes (CYP isozymes): minimal or no direct inhibition | Direct inhibition of OATP1B1 (OATP1B1): minimal or no direct inhibition | Component of metabolism via CYP3A4 [5]: approximately 10% | Direct inhibition of OATP1B3 (OATP1B3): minimal or no direct inhibition | Direct inhibition of MRP2 (MRP2): minimal or no direct inhibition | Induction of CYP2B6 (CYP2B6): not an inducer | Direct inhibition of breast cancer resistance protein [6]: minimal or no direct inhibition | Induction of CYP1A2 (CYP1A2): not an inducer | Substrate of P-gp (P-glycoprotein (P-gp)): substrate of P-glycoprotein | Direct inhibition of UGT1A1 (UGT1A1): minimal or no direct inhibition | Direct inhibition of P-gp (P-gp): minimal or no direct inhibition | Effect on midazolam exposure (CYP3A4 [7]): no significant effect | Tolerability ([2]; DTG alone and co-administered with CBZ, healthy subjects): well tolerated | Subjects who experienced at least one AE ([2]; healthy subjects): No subjects experienced AEs | Drug-related adverse events: ALT increased ([2]; healthy subjects): 0 n (%) | Drug-related adverse events: Any event ([2]; healthy subjects): 0 n (%) | Drug-related adverse events: Asthenia ([2]; healthy subjects): 0 n (%) | Drug-related adverse events: Cognitive disorder ([2]; healthy subjects): 0 n (%) | Drug-related adverse events: Drug reaction with eosinophilia and systemic symptoms ([2]; healthy subjects): 0 n (%) | Drug-related adverse events: Fatigue ([2]; healthy subjects): 0 n (%) | Drug-related adverse events: Headache ([2]; healthy subjects): 0 n (%) | Drug-related adverse events: Hyponatremia ([2]; healthy subjects): 0 n (%) | Drug-related adverse events: Leukopenia ([2]; healthy subjects): 0 n (%) | Drug-related adverse events: Lymphopenia ([2]; healthy subjects): 0 n (%) | Drug-related adverse events: Nausea ([2]; healthy subjects): 0 n (%) | Drug-related adverse events: Pain in extremity ([2]; healthy subjects): 0 n (%) | Drug-related adverse events: Photosensitivity reaction ([2]; healthy subjects): 0 n (%) | Drug-related adverse events: Pyrexia ([2]; healthy subjects): 0 n (%) | Drug-related adverse events: Rash maculopapular ([2]; healthy subjects): 0 n (%) | Drug-related adverse events: Thirst ([2]; healthy subjects): 0 n (%) | Drug-related adverse events: Thrombocytopenia ([2]; healthy subjects): 0 n (%) | Reduction of DTG AUC(0-τ) [8]: 36 to 49% | Reduction of DTG Cτ [8]: 72 to 76%
